Results as given in US6841537B1, “Combination therapy using nucleic acids and conventional drugs” (Protiva Biotherapeutics Inc., priority 1998, dated 2005).

Tests used:
[1] = system: SK-OV-3 cells; assay: Cell cycle arrest by aphidicolin, propidium iodide staining and flow cytometry; assay type: cell-based, human; conditions: (+/−) culture
Procedure: (§1) SK-OV-3 or HeLa-luc cells were seeded at a density of 30,000 cells per well in a 24 well plate in growth media 24 hours prior to treatment with aphidicolin. Aphidicolin (Sigma) was reconstituted in phosphate buffered saline containing 0.5% DMSO. Cells were incubated with aphidicolin at a final concentration of 5 μg/mL in 1 mL of media per well for 16 hours prior to transfection. Transfection was accomplished by the addition of 0.5 μg of formulated DNA to each well.
The cell cycle status of cultures was determined by flow cytometry of permeabilized cells that were stained with propidium iodide. Prior to harvesting, media was aspirated and the cells were washed twice with 2 mL phosphate buffered saline (PBS). […] 5,000 cells were analyzed in the FL2 channel (λemission=585+/−21 nm) of a FACSort flow cytometer (Becton-Dickinson, San Jose, Calif.) equipped with an Ar- ion laser (λexcitation=488 nm)
In an initial study, the effectiveness of a non-lethal concentration of aphidicholin to arrest SK-OV-3 cells was determined. A sub-confluent asynchronous cell culture contained approx. 75%, 5% and 20% of cells in G1, S and M phase, respectively, as measured by staining with propidium iodide (PI) followed by flow cytometry (FIG. 1(A)). […]

[2] = system: SK-OV-3 cells; assay: Uptake of YOYO-1 labeled plasmid DNA lipoplexes by flow cytometry; assay type: cell-based, human; conditions: aphidicolin arrested vs control cells
Procedure: as §1, with “well. […]” for “well.”
Lipoplexes were prepared using YOYO-1 labeled DNA and incubated with cells. […] Fluorescence was measured in the FL1 channel (λemission=530+/−15 nm) of a FACSort flow cytometer (Becton-Dickinson, San Jose, Calif.) equipped with an Ar- ion laser ([…]). Data was collected from 10,000 cells and analyzed for fluorescence using CellQuest software.
In order to determine whether aphidicolin treatment affects cellular processes related to transgene expression, effects on DNA uptake and gene expression were studied. It has been shown previously that fluorescently labeled DNA can be formulated as lipoplexes and the uptake of lipoplexes can be measured by flow cytometry (see, Zabner, et al., J. Biol. Chem., 270:18997-19007 (1995); and Tseng, et al., Biotechnol. Bioeng., 50:548-554 (1996);). […] The rate of lipoplex uptake per cell was determined by flow cytometry. […]

[3] = system: HeLa-luc cells; assay: Effect of aphidicolin on constitutive CMV driven luciferase gene expression; assay type: cell-based, human; conditions: 0, 6 and 24 hours after arrest vs untreated control cells
Procedure: SK-OV-3 cells (human ovarian tumor cells, ATCC) were cultured in RPMI 1640 media (StemCell Technologies, Vancouver, B.C.) supplemented with 10% fetal bovine serum (Intergen). HeLa-luc cells were stably transfected with a luciferase reporter plasmid and cultured in Dulbecco's modified Eagle medium (StemCell Technologies, Vancouver, B.C.) supplemented with 10% fetal bovine serum and 400 μg/mL Geneticin (Gibco BRL). […]
(§2) Luciferase assays were performed using the Luciferase Assay System kit (Promega, Madison, Wis.) according to the manufacturer's protocol. […] A standard curve was determined by assaying 20 μL of serial dilutions of a 1 mg/mL luciferase standard (Boehringer Mannheim). […] Absorbance was monitored at 570 nm (Dynatech MR5000 plate reader) and protein content calculated using a standard curve of varying concentrations of BSA.
To determine the effect of aphidicolin-mediated cell cycle arrest on the transcriptional and translational machinery of the cell, a clonal HeLa cell line stably transfected with a CMV driven luciferase expression cassette (Song, Inex Pharmaceuticals, unpublished) was analyzed. […]

[4] = system: SK-OV-3 cells; assay: Lipid mediated transfection (luciferase activity) in aphidicolin treated cells; assay type: cell-based, human
Procedure: Lipoplexes were prepared as follows: All reagents were sterile and cooled to 4° C. prior to complex preparation. A solution containing 62 μM dioleoyldimethylammonium chloride:1,2-sn-dioleoylphosphatidylethanolamine (DODAC:DOPE) large unilamellar vesicles (LUVs) and a solution containing 10 μg/mL plasmid DNA were prepared in distilled water. The DNA was added to an equal volume of lipid dropwise, while vortexing. The solution was incubated on ice for 30 minutes prior to transfection. The resulting lipoplexes contained a final DNA concentration of 0.5 μg/100 μL and the cationic lipid:DNA (+:−) charge ratio was 1:1.
Plasmid containing a therapeutic gene was encapsulated as SPLP using the detergent dialysis method of INEX 351. […]
as §2
An initial experiment was performed to determine whether lipid mediated transfection was affected by the cell cycle status of SK-OV-3 cells in vitro. […] Luciferase activity was measured after 24 hrs of continuous exposure to lipoplexes. […]

[5] = system: MCA 207 tumor; assay: Combination therapy: OncoTCS then i.v. INEX 324 with pINEX-IL-12, tumor size; assay type: in vivo, C57 BL/6 mice; conditions: subtherapeutic dose (OncoTCS 0.5 mg/kg i.v.) before INEX 324 i.v. 100 μg DNA
Procedure: C57 BL/6 mice are seeded subcutaneously with MCA 207 tumor cells. Tumor seeding is performed by standard techniques. Mice were seeded subcutaneously on the hip flank with 100,000 MCA-207 fibrosarcoma tumor cells by sub-cutaneous injection on day zero.
On days 7-10, when tumors had developed to useable sizes, mice were injected i.v. via tail vein with approximately 0.5 mg/kg of OncoTCS (200 μL).
At 8, 16, 24, 30, 36, 42 or […] after OncoTCS treatment, the mice were injected i.v. via tail vein with INEX 324 (100 μg DNA pINEX-1L-12 with about 500 μg lipid all in about 200 μL total volume). Control mice received HBS.

[6] = system: MCA 207 tumor; assay: Combination therapy: OncoTCS then i.v. INEX 303 with pINEX-TK10 plus ganciclovir, tumor size; assay type: in vivo, C57 BL/6 mice; conditions: subtherapeutic pretreatment (OncoTCS 0.5 mg/kg i.v.) before INEX 303 pINEX-TK10 i.v. and ganciclovir i.p.
Procedure: C57 BL/6 mice are seeded subcutaneously with MCA 207 tumor cells. Tumor seeding is performed by standard techniques. Mice are seeded subcutaneously on the hip flank with 100,000 MCA-207 fibrosarcoma tumor cells by […] injection on day zero. The tumor cells are cultivated and prepared according to standard techniques using RPMI media with 10% Fetal Bovine Serum (see, for example, Current Protocols in Molecular Biology, Eds. Ausubel, F. M., et al.)
At 8, 16, 24, 30, 36, 42 or […] after OncoTCS treatment, the mice are injected i.v. via tail vein with INEX 303 containing pINEX-TK10 prepared as described herein (100 μg DNA with about 500 μg lipid all in about 200 μL total volume). Control mice receive HBS.
1 mg ganciclovir, which is in 200 μL PBS (approximately 50 mg/kg; commercially available from Hoffman La Roche) is administered by intraperitoneal injection 12 h and 24 h after SPLP administration.

[7] = system: B16 cells; assay: Luciferase activity in i.p. tumors after i.p. INEX 324 following OncoTCS; assay type: in vivo, C57 mice; conditions: OncoTCS 0.5 mg/kg i.v. 24 hours before INEX 324 i.p. 20 micrograms
Procedure: […] are seeded intraperitoneally with about 100,000 B16 cells. On day 7, 12 mice are injected i.v. via the tail vein with about 0.5 mg/kg of OncoTCS (vincristine sulfate encapsulated in sphingomyelin-containing TCS) in about 200 microliters. 12 control mice are not treated with OncoTCS. 24 hours later, all mice are injected i.p. with 20 micrograms of INEX 324 (TCS containing luciferase plasmid pINEX L018) in 500 microliters. Tumors are harvested 6, 12, 24 and 48 hours later, fast frozen, and stored at −70° C. until analyzed for luciferase activity. The frozen organs are then thawed at room temperature. 600 microliters of 1× cell culture lysis buffer (Promega) is added and the samples are homogenized in a FASTPREP homogenizer for 20 sec. at speed 4.0. The samples are centifuged for 2 min. at 10,000 g, and 20 microliters of the supernatant is assayed for luciferase activity.

| Compound | cells in the G2/M phase ([1]; 16 hrs after removal of aphidicolin block) | cells that had undergone mitotic division and progressed into the G1 phase ([1]; within 22 hrs after removal of aphidicolin block) [%] | effect of cell cycle arrest on internalization of lipoplexes [2] | effect on level of luciferase gene expression [3] | decrease in luciferase gene expression ([4]; (+/+) culture arrested in G1, 24 hrs continuous exposure to DODAC:DOPE lipoplexes, vs asynchronous control) [fold] | luciferase expression vs control asynchronous culture ([4]; (+/−) culture, 24 hrs exposure to lipoplexes) | effect on therapeutic effect of pINEX-IL-12 in INEX 324 [5] | tumor growth vs HSV-TK/ganciclovir system alone [6] | transfection of tumors [7] |
| --- | --- | --- | --- | --- | --- | --- | --- | --- | --- |
| C[C@@]1(CO)[C@H](O)CC[C@@]2(C)[C@H]1CC[C@H]1C[C@@H]3C[C@@]12CC[C@]3(O)CO [aphidicolin, Aphidicolin] | approximately 85% | ~45 | does not affect the internalization of lipoplexes | did not significantly affect | 20 | did not differ significantly |  |  |  |
| CC[C@]1(O)C[C@H]2CN(CCc3c([nH]c4ccccc34)[C@@](C(=O)OC)(c3cc4c(cc3OC)N(C=O)[C@H]3[C@@](O)(C(=O)OC)[C@H](OC(C)=O)[C@]5(CC)C=CCN6CC[C@]43[C@@H]65)C2)C1 [vincristine] |  |  |  |  |  |  | greatly enhances the therapeutic effect | inhibits growth of tumors and promotes tumor regression to a significantly greater degree | transfection of neoplastic sites |
